pIC50: −log10 of the molar value.
target: T1, Kv1.3 (Homo sapiens, UniProt P22001); experiment: Electrophysiology: planar patch-clamp of Kv1.3 currents, IC50 from steady state current amplitude; assay type: cell-based; conditions: Kv1.3 electrophysiology, results according to Method D1, read-out: IC50 (Kv1.3 ephys steady state)
T1 construct: expressed in transfected cells; host or cells: CHO (Kv1.3/CHO)
Experimental: The inhibition data shown for the compounds of the list below was calculated using the steady state current amplitude at the end of the depolarising pulse in patch clamp evaluations (as described in the Biology Protocols: 1. Electrophysiology).
Kv1.x currents were measured in Kv1.3/CHO or Kv1.5/CHO cells using a planar electrode version (Nanion Technologies GMBH) of the patch-clamp technique. Whole-cell Kv1.x current transients were evoked by 500 ms depolarising voltage pulses to +40 mV from a holding potential of −80 mV applied at 10 s intervals for Kv1.5 and at 30 s intervals for Kv1.3 to allow adequate time for recovery from inactivation. Cells were continuously bathed in a buffered saline solution containing (mM): 160 NaCl, 4.5 KCl, 2 CaCl2, 1 MgCl2, 5 glucose, 10 HEPES, pH 7.4, 290-310 mOsm·Kg^−1. The internal (pipette) solution contained (mM): 10 NaCl, 70 KF, 75 KCl, 2 MgCl2, 10 HEPES, 10 EGTA, pH 7.2, 290-310 mOsm·Kg^−1. Series resistance compensation (60-80%) was applied to cells in which the peak current amplitude exceeded 2 nA.
Compound Preparation and Potency Assessment
Compounds were initially dissolved in DMSO to 10 mM. After further dilution in DMSO, compounds were finally diluted in bath solution 1/200 (to give a final DMSO concentration of 0.5%) and applied directly to the recording chamber. Compounds were added at increasing concentrations allowing ample time for steady state block to be achieved between each concentration. Each compound was tested at 5-6 different concentrations on 2-3 cells. Compound IC50 values were determined by fitting the average normalised reduction of either the current integral or the steady state current amplitude at the end of the 500 ms depolarising pulse obtained at each compound concentration to the Hill equation. The IC50 data reported herein is based on the steady state calculation.

T1 sequence (P22001 whole entry): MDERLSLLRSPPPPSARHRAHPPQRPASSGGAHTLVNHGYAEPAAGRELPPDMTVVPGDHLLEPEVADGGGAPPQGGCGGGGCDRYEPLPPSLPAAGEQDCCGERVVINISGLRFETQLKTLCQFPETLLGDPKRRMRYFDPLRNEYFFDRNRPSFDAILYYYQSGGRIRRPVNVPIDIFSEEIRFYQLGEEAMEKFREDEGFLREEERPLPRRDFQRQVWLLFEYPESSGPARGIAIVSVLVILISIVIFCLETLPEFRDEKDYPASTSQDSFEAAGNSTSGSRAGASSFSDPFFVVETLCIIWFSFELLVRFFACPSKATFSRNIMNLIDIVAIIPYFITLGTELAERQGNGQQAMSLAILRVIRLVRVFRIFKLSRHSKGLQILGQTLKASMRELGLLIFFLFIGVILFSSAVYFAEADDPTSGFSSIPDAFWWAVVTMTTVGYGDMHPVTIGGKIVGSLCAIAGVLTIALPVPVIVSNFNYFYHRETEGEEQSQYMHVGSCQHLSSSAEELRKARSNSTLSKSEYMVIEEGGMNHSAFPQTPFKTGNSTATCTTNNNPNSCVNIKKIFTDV

pIC50 | Structure (SMILES)
6.00 to 6.70 | CCS(=O)(=O)c1cccc(C(C2CC2)N(Cc2ccncn2)C(=O)C2CC2c2ccc(F)cc2)c1 (centres unmarked) [Example 192]
6.70 to 7.30 | CCS(=O)(=O)c1cccc(C(C2CC2)N(Cc2ccc(F)cn2)C(=O)C2CC2c2ccc(F)cc2F)c1 (centres unmarked) [Example 193]
6.70 to 7.30 | CCS(=O)(=O)c1cccc(C(C2CC2)N(Cc2ccc(F)cn2)C(=O)C2CC2c2ccc(F)cc2F)c1 (centres unmarked) [Example 196]
6.70 to 7.30 | CCS(=O)(=O)c1cccc(C(C2CC2)N(Cc2ccc(F)cn2)C(=O)C2CC2c2ccc(F)c(F)c2)c1 (centres unmarked) [Example 197]
6.70 to 7.30 | CCS(=O)(=O)c1cccc(C(C2CC2)N(C(=O)C2CC2c2ccccc2OC(F)(F)F)C2CCOCC2)c1 (centres unmarked) [Example 220]
6.00 to 6.70 | CCS(=O)(=O)c1cccc(C(C2CC2)N(C(=O)C2CC2c2ccccc2OC(F)(F)F)C2CCOCC2)c1 (centres unmarked) [Example 221]
6.70 to 7.30 | CCS(=O)(=O)c1cccc(C(C2CC2)N(Cc2cccnn2)C(=O)C2CC2c2ccc(F)cc2)c1 (centres unmarked) [Example 223]
6.00 to 6.70 | CCS(=O)(=O)c1cccc(C(C2CC2)N(Cc2cccnn2)C(=O)C2CC2c2cccc(C(F)(F)F)c2)c1 (centres unmarked) [Example 225]
6.00 to 6.70 | CCS(=O)(=O)c1cccc(C(C2CC2)N(Cc2cccnn2)C(=O)C2CC2c2cccc(C(F)(F)F)c2)c1 (centres unmarked) [Example 226]
6.70 to 7.30 | CCS(=O)(=O)c1ccc(C(C2CC2)N(Cc2ccc(F)cn2)C(=O)C2CC2c2cccc(C(F)(F)F)c2)cc1 (centres unmarked) [Example 227]
6.70 to 7.30 | CCS(=O)(=O)c1ccc(C(C2CC2)N(Cc2ccc(F)cn2)C(=O)C2CC2c2cccc(C(F)(F)F)c2)cc1 (centres unmarked) [Example 228]
6.70 to 7.30 | CCS(=O)(=O)c1ccc(C(C2CC2)N(Cc2cccnn2)C(=O)C2CC2c2ccc(F)cc2)cc1 (centres unmarked) [Example 231]
6.00 to 6.70 | CC(C)S(=O)(=O)c1ccc(C(C2CC2)N(Cc2ncccc2F)C(=O)C2CC2c2ccc(F)cc2)cc1 (centres unmarked) [Example 235]
6.70 to 7.30 | CC(C)S(=O)(=O)c1ccc(C(C2CC2)N(Cc2cccnn2)C(=O)C2CC2c2ccc(F)cc2)cc1 (centres unmarked) [Example 236]
6.70 to 7.30 | CC(C)S(=O)(=O)c1ccc(C(C2CC2)N(Cc2cccnn2)C(=O)C2CC2c2ccc(F)cc2)cc1 (centres unmarked) [Example 237]
6.00 to 6.70 | CC(C)S(=O)(=O)c1ccc(C(C2CC2)N(Cc2ccc(F)cn2)C(=O)C2CC2c2ccc(F)cc2)cc1 (centres unmarked) [Example 239]
6.00 to 6.70 | CC(C)S(=O)(=O)c1cccc(C(C2CC2)N(Cc2cccnn2)C(=O)C2CC2c2ccc(F)cc2)c1 (centres unmarked) [Example 240]
6.70 to 7.30 | CC(C)S(=O)(=O)c1cccc(C(C2CC2)N(Cc2ccc(F)cn2)C(=O)C2CC2c2ccc(F)cc2)c1 (centres unmarked) [Example 242]
6.70 to 7.30 | CC(C)S(=O)(=O)c1cccc(C(C2CC2)N(Cc2ccncn2)C(=O)C2CC2c2ccc(F)cc2)c1 (centres unmarked) [Example 247]
6.00 to 6.70 | O=C(C1CC1c1ccc(F)cc1)N(Cc1ccc(F)cn1)C(c1ccc(S(=O)(=O)C2CC2)cc1)C1CC1 (centres unmarked) [Example 250]
6.70 to 7.30 | N#Cc1cccc(C(C2CC2)N(Cc2ncccc2F)C(=O)C2CC2c2ccc(F)cc2)c1 (centres unmarked) [Example 252]
6.70 to 7.30 | CSc1cccc(CN(C(=O)C2CC2c2ccc(F)cc2)C(c2ccc(Cl)cc2)C2CC2)n1 (centres unmarked) [Example 254]
6.70 to 7.30 | CC(CC(=O)N(Cc1cccnn1)C(c1ccc(OC(F)F)cc1)C1CC1)c1ccccc1C(F)(F)F (centres unmarked) [Example 260]
> 7.30 | CC(CC(=O)N(Cc1cccnn1)C(c1ccc(OC(F)F)cc1)C1CC1)c1ccc(F)cc1 (centres unmarked) [Example 262]
6.70 to 7.30 | CC(CC(=O)N(Cc1ccc(C(F)(F)F)nc1)C(c1ccc(OC(F)F)cc1)C1CC1)c1ccccc1S(C)(=O)=O (centres unmarked) [Example 263]
6.70 to 7.30 | CCS(=O)(=O)c1cccc(C(C2CC2)N(Cc2ccc(F)cn2)C(=O)CC(C)c2ccccc2C(F)(F)F)c1 (centres unmarked) [Example 265]
6.70 to 7.30 | CC(CC(=O)N(Cc1cccc[n+]1[O-])C(c1ccc(Cl)cc1)C1CC1)c1ccc(F)cc1 (centres unmarked) [Example 272]
6.00 to 6.70 | CN1CCC(C(c2ccc(F)cc2F)N(Cc2ccc(F)cn2)C(=O)CS(=O)(=O)c2ccc(F)cc2)CC1 (centres unmarked) [Example 287]
5.70 to 6.00 | CC(c1ccc(S(C)(=O)=O)cc1)N(Cc1ccc(C(F)(F)F)nc1)C(=O)C(C)(C)S(=O)(=O)c1ccccc1 (centres unmarked) [Example 288]
6.70 to 7.30 | O=C(CS(=O)(=O)c1ccc(F)cc1)N(Cc1ccc(F)cn1)C(c1ccc(Cl)cc1)C1CC1 (centres unmarked) [Example 290]

Second part, the molecule before the results:

Structure (SMILES) | pIC50
CCS(=O)(=O)c1cccc(C(C2CC2)N(CC(F)(F)c2ccccn2)C(=O)C2CC2c2ccc(F)cc2)c1 (centres unmarked) [Example 191] | 6.70 to 7.30
CCS(=O)(=O)c1cccc(C(C2CC2)N(Cc2ccc(F)cn2)C(=O)C2CC2c2cccc(C(F)(F)F)c2)c1 (centres unmarked) [Example 212] | 6.70 to 7.30
CCS(=O)(=O)c1cccc(C(C2CC2)N(Cc2cncc(F)c2)C(=O)C2CC2c2ccc(F)cc2)c1 (centres unmarked) [Example 214] | 6.70 to 7.30
CCS(=O)(=O)c1cccc(C(C2CC2)N(Cc2ccc(F)cn2)C(=O)C2CC2c2ccc(F)cc2)c1 (centres unmarked) [Example 215] | 6.70 to 7.30
CCS(=O)(=O)c1cccc(C(C2CC2)N(Cc2ccccn2)C(=O)C2CC2c2cccc(C(F)(F)F)c2)c1 (centres unmarked) [Example 216] | 6.70 to 7.30
CCS(=O)(=O)c1cccc(C(C2CC2)N(Cc2ccccn2)C(=O)C2CC2c2cccc(C(F)(F)F)c2)c1 (centres unmarked) [Example 217] | 6.70 to 7.30
CCS(=O)(=O)c1cccc(C(C2CC2)N(Cc2ncccc2F)C(=O)C2CC2c2ccc(F)cc2)c1 (centres unmarked) [Example 218] | 6.70 to 7.30
CCS(=O)(=O)c1cccc(C(C2CC2)N(C(=O)C2CC2c2ccc(F)cc2)C2CCC(F)(F)CC2)c1 (centres unmarked) [Example 219] | 6.70 to 7.30
CCS(=O)(=O)c1cccc(C(C2CC2)N(Cc2ccc(F)cn2)C(=O)C2CC2c2ccc(OC(F)F)cc2)c1 (centres unmarked) [Example 222] | 6.70 to 7.30
CCS(=O)(=O)c1ccc(C(C2CC2)N(Cc2ccc(F)cn2)C(=O)C2CC2c2ccc(F)cc2F)cc1 (centres unmarked) [Example 229] | 6.70 to 7.30
CCS(=O)(=O)c1ccc(C(C2CC2)N(Cc2ccc(F)cn2)C(=O)C2CC2c2ccc(F)cc2F)cc1 (centres unmarked) [Example 230] | 6.70 to 7.30
CCS(=O)(=O)c1ccc(C(C2CC2)N(Cc2ccc(F)cn2)C(=O)C2CC2c2ccc(F)cc2)cc1 (centres unmarked) [Example 232] | 6.70 to 7.30
CCS(=O)(=O)c1ccc(C(C2CC2)N(Cc2ccc(F)cn2)C(=O)C2CC2c2ccc(F)cc2)cc1 (centres unmarked) [Example 233] | 6.70 to 7.30
CC(C)S(=O)(=O)c1ccc(C(C2CC2)N(Cc2ncccc2F)C(=O)C2CC2c2ccc(F)cc2)cc1 (centres unmarked) [Example 234] | 6.00 to 6.70
CC(C)S(=O)(=O)c1ccc(C(C2CC2)N(Cc2ccc(F)cn2)C(=O)C2CC2c2ccc(F)cc2)cc1 (centres unmarked) [Example 238] | 6.70 to 7.30
CC(C)S(=O)(=O)c1cccc(C(C2CC2)N(Cc2cccnn2)C(=O)C2CC2c2ccc(F)cc2)c1 (centres unmarked) [Example 241] | 6.00 to 6.70

Structure (SMILES) | pIC50
CC(C)S(=O)(=O)c1cccc(C(C2CC2)N(Cc2ccc(F)cn2)C(=O)C2CC2c2ccc(F)cc2)c1 (centres unmarked) [Example 243] | 6.70 to 7.30
CC(C)S(=O)(=O)c1cccc(C(C2CC2)N(Cc2cncc(F)c2)C(=O)C2CC2c2ccc(F)cc2)c1 (centres unmarked) [Example 244] | 6.00 to 6.70
CC(C)S(=O)(=O)c1cccc(C(C2CC2)N(Cc2ncccc2F)C(=O)C2CC2c2ccc(F)cc2)c1 (centres unmarked) [Example 245] | 6.00 to 6.70
CC(C)S(=O)(=O)c1cccc(C(C2CC2)N(Cc2ncccc2F)C(=O)C2CC2c2ccc(F)cc2)c1 (centres unmarked) [Example 246] | 6.00 to 6.70
O=C(C1CC1c1ccc(F)cc1)N(Cc1cccnn1)C(c1ccc(S(=O)(=O)C2CC2)cc1)C1CC1 (centres unmarked) [Example 248] | 6.00 to 6.70
O=C(C1CC1c1ccc(F)cc1)N(Cc1cccnn1)C(c1ccc(S(=O)(=O)C2CC2)cc1)C1CC1 (centres unmarked) [Example 249] | 6.70 to 7.30
N#Cc1cccc(C(C2CC2)N(Cc2ncccc2F)C(=O)C2CC2c2ccc(F)cc2)c1 (centres unmarked) [Example 251] | 6.00 to 6.70
CCS(=O)(=O)c1cccc(CN(C(=O)C2CC2c2ccc(F)cc2)C(c2ccc(Cl)cc2)C2CC2)n1 (centres unmarked) [Example 253] | > 7.30
CC(CC(=O)N(Cc1cccnn1)C(c1ccc(OC(F)F)cc1)C1CC1)c1ccccc1C(F)(F)F (centres unmarked) [Example 261] | 6.00 to 6.70
CC(CC(=O)N(Cc1ccc(F)cn1)C(c1ccc(S(=O)(=O)C(C)C)cc1)C1CC1)c1ccc(F)cc1 (centres unmarked) [Example 264] | > 7.30
CCS(=O)(=O)c1ccc(C(C2CC2)N(Cc2ccc(F)cn2)C(=O)CC(C)c2ccccc2C(F)(F)F)cc1 (centres unmarked) [Example 269] | 6.70 to 7.30
CC(CC(=O)N(Cc1ccc(F)cn1)C(c1ccc(F)cc1)C1CCCO1)c1ccc(F)cc1 (centres unmarked) [Example 270] | 6.70 to 7.30
CC(CC(=O)N(Cc1ccc(F)cn1)C(c1ccc(F)cc1F)C1CCN(C)CC1)c1ccc(F)cc1 (centres unmarked) [Example 271] | 6.00 to 6.70
CC(c1ccc(Cl)cc1)N(C(=O)CS(=O)(=O)c1ccc(F)cc1)C1CC2CCC(C1)N2C (centres unmarked) [Example 280] | 6.00 to 6.70
O=C(CS(=O)(=O)c1ccccc1)N(Cc1ccc(C(F)(F)F)nc1)C(c1ccc(F)cc1)C1CCCO1 (centres unmarked) [Example 282] | 6.70 to 7.30
CC(C)C(c1ccc(F)cc1)N(CCC1CCNCC1)C(=O)CS(=O)(=O)c1ccc(F)cc1 (centres unmarked) [Example 284] | 6.00 to 6.70
